Test results reported in ChEMBL document CHEMBL6127060, “Bioisosteric replacement of the carboxylic acid group in Hepatitis-C virus NS5B thumb site II inhibitors: phenylalanine derivatives” (Eur J Med Chem, 2024).

Experiments:
[1] = molecular target: Hepatitis C virus NS5B RNA-dependent RNA polymerase (Hepatitis C virus, UniProt Q8JXU8); test: Inhibition of Hepatitis C virus NS5B polymerase; design: species or system Hepacivirus hominis
Hepatitis C virus [2] = test: Antiviral activity against Hepatitis C virus genotype 1b infected in human Huh-7 cells assessed as inhibition of viral growth incubated for 3 days; format: functional, organism-based, Hepacivirus hominis; details: Huh-7, 72 h
[3] = Cytotoxicity against human Huh-7 cells assessed as cell viability; format: toxicity, cell-based
Hepatitis C virus [4] = test: Antiviral activity against Hepatitis C virus; format: functional, organism-based, Hepacivirus hominis

Hepatitis C virus NS5B RNA-dependent RNA polymerase, sequence (Q8JXU8 whole entry): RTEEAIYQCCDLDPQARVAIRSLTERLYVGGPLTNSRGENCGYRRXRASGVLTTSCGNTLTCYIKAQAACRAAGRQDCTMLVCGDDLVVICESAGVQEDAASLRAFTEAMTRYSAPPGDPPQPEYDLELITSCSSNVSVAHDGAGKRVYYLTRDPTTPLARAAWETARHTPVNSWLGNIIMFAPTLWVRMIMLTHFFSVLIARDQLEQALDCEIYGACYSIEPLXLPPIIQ

| SMILES | IC50 [1] [µM] | EC50 (Hepatitis C virus [2]) [µM] | CC50 [3] [µM] | EC50 (Hepatitis C virus [4]) [µM] |
| --- | --- | --- | --- | --- |
| O=C(O)[C@H](Cc1ccccc1)N(Cc1cccc([N+](=O)[O-])c1)C(=O)c1ccc(Cl)cc1Cl | 0.7 |  |  |  |
| O=C(O)[C@H](Cc1ccccc1)N(Cc1cccc(C(F)(F)F)c1)C(=O)c1ccc(Cl)cc1Cl | 1.7 |  |  |  |
| N#Cc1cccc(CN(C(=O)c2ccc(Cl)cc2Cl)[C@@H](Cc2ccccc2)C(=O)O)c1 | 0.8 |  |  |  |
| N/C(=N\O)C(Cc1ccccc1)N(Cc1cccc(F)c1)C(=O)c1ccc(Cl)cc1Cl (stereo not given) |  | > 50 | > 50 |  |
| O=C(c1ccc(Cl)cc1Cl)N(Cc1cccc(C(F)(F)F)c1)C(Cc1ccccc1)c1noc(=O)[nH]1 (stereo not given) |  | > 50 | 49.2 |  |
| N/C(=N\O)C(Cc1ccccc1)N(Cc1cccc([N+](=O)[O-])c1)C(=O)c1ccc(Cl)cc1Cl (stereo not given) |  | 11.3 | 18.2 |  |
| O=C(c1ccc(Cl)cc1Cl)N(Cc1cccc(Br)c1)C(Cc1ccccc1)c1noc(=O)[nH]1 (stereo not given) |  | > 50 | > 50 |  |
| N#CC(Cc1ccccc1)N(Cc1cccc(Br)c1)C(=O)c1ccc(Cl)cc1Cl (stereo not given) |  | > 50 | > 50 |  |
| CC(C)(C)C(=O)OCn1c(C(Cc2ccccc2)N(Cc2cccc([N+](=O)[O-])c2)C(=O)c2ccc(Cl)cc2Cl)noc1=S (stereo not given) |  | > 50 | > 50 |  |
| O=C(c1ccc(Cl)cc1Cl)N(Cc1cccc(F)c1)C(Cc1ccccc1)c1noc(=O)[nH]1 (stereo not given) |  | > 50 | > 50 |  |
| O=C(c1ccc(Cl)cc1Cl)N(Cc1cccc(C(F)(F)F)c1)C(Cc1ccccc1)c1noc(=S)[nH]1 (stereo not given) |  | > 50 | > 50 |  |
| Cn1c(C(Cc2ccccc2)N(Cc2cccc(C(F)(F)F)c2)C(=O)c2ccc(Cl)cc2Cl)noc1=S (stereo not given) |  | 8.09 | > 50 |  |
| O=C(c1ccc(Cl)cc1Cl)N(Cc1cccc([N+](=O)[O-])c1)C(Cc1ccccc1)c1noc(=O)[nH]1 (stereo not given) |  | > 50 | > 50 |  |
| CC1CCC(C(=O)N(C)c2ccc(Oc3ccccc3C(F)(F)F)cc2C(=O)O)CC1 (stereo not given) | 0.2 |  |  | 1.1 |
| N#CC(Cc1ccccc1)N(Cc1cccc([N+](=O)[O-])c1)C(=O)c1ccc(Cl)cc1Cl (stereo not given) |  | 5.19 | > 50 |  |
| CC(C)(C)C(=O)OCn1c(C(Cc2ccccc2)N(Cc2cccc(C(F)(F)F)c2)C(=O)c2ccc(Cl)cc2Cl)noc1=S (stereo not given) |  | > 50 | > 50 |  |
| O=C(c1ccc(Cl)cc1Cl)N(Cc1cccc([N+](=O)[O-])c1)C(Cc1ccccc1)c1noc(=S)[nH]1 (stereo not given) |  | > 50 | > 50 |  |
| N#CC(Cc1ccccc1)N(Cc1cccc(F)c1)C(=O)c1ccc(Cl)cc1Cl (stereo not given) |  | 3.72 | > 50 |  |
| N#CC(Cc1ccccc1)N(Cc1cccc(C(F)(F)F)c1)C(=O)c1ccc(Cl)cc1Cl (stereo not given) |  | > 50 | > 50 |  |
| N/C(=N\O)C(Cc1ccccc1)N(Cc1cccc(Br)c1)C(=O)c1ccc(Cl)cc1Cl (stereo not given) |  | 6.36 | 16.1 |  |
| O=C(c1ccc(Cl)cc1Cl)N(Cc1cccc(Br)c1)C(Cc1ccccc1)c1noc(=S)[nH]1 (stereo not given) |  | > 50 | > 50 |  |
| O=C(c1ccc(Cl)cc1Cl)N(Cc1cccc(F)c1)C(Cc1ccccc1)c1noc(=S)[nH]1 (stereo not given) |  | > 50 | > 50 |  |
| N/C(=N\O)C(Cc1ccccc1)N(Cc1cccc(C(F)(F)F)c1)C(=O)c1ccc(Cl)cc1Cl (stereo not given) |  | 3.91 | 11 |  |
| CC1=CC[C@H](C(=O)N(c2cc(C#CC(C)(C)C)sc2C(=O)O)[C@H]2CC[C@](O)(CO[C@H]3CCOC3)CC2)CC1 [RADALBUVIR] |  | 0.052 | > 50 |  |
